Results as given in ChEMBL document CHEMBL4371055, “Bioactive polyoxygenated cembranoids from a novel Hainan chemotype of the soft coral Sinularia flexibilis” (Bioorg Med Chem Lett, 2019).

Assays:
SNU-398 = assay: Cytotoxicity against human SNU398 cells after 48 hrs by sulforhodamine B assay; format: functional, cell-based; conditions: SNU-398, 48 h
CAPAN-1 = assay: Cytotoxicity against human Capan1 cells after 48 hrs by sulforhodamine B assay; format: functional, cell-based; conditions: CAPAN-1, 48 h
RAW264.7 = assay: Antiinflammatory activity in mouse RAW264.7 cells assessed as inhibition of LPS-induced TNFalpha production pretreated for 30 mins followed by LPS stimulation for 24 hrs by ELISA; format: functional, cell-based
[1] = Cytotoxicity against mouse RAW264.7 cells assessed as reduction in cell viability after 24 hrs by CCK8 assay; format: cell-based
A549 = assay: Cytotoxicity against human A549 cells after 48 hrs by sulforhodamine B assay; format: functional, cell-based; conditions: A549, 48 h
HT-29 = assay: Cytotoxicity against human HT-29 cells after 48 hrs by sulforhodamine B assay; format: functional, cell-based; conditions: HT-29, 48 h
[2] = Selectivity index, ratio of CC50 for mouse RAW264.7 cells to IC50 for inhibition of LPS-induced TNFalpha production in mouse RAW264.7 cells; format: toxicity, cell-based; conditions: read-out: Ratio CC50/IC50

With `CC(=O)O[C@H]1C(=O)[C@@]2(C)[C@H]([C@H](OC(=O)c3ccccc3)[C@]3(O)C[C@H](OC(=O)[C@H](O)[C@@H](NC(=O)c4ccccc4)c4ccccc4)C(C)=C1C3(C)C)[C@]1(OC(C)=O)CO[C@@H]1C[C@@H]2O` [PACLITAXEL] the IC50 (SNU-398) was 0.0006 µM and the IC50 (CAPAN-1) was 0.0033 µM.

With `C=C1C(=O)O[C@]2(C)CC[C@@H]1C[C@@H]1O[C@@]1(C)CC/C=C(\C)CCC2=O` the IC50 (RAW264.7) was over 50 µM, the CC50 at 24 h [1] was over 50 µM and the IC50 (A549) was 27.4 µM. It also gave an IC50 (HT-29) of 22.7 µM, an IC50 (SNU-398) of 8.9 µM and an IC50 (CAPAN-1) of 9.4 µM.

In the case of `C=C(C(=O)OC)[C@H]1CC[C@](C)(O)C(=O)CC/C(C)=C/CC[C@]2(C)O[C@@H]2C1`, the IC50 (RAW264.7) is reported as 13.3 µM, the CC50 at 24 h [1] is reported as over 50 µM and the selectivity ratio [2] is reported as over 3.8. It also gave an IC50 (A549) of over 50 µM, an IC50 (HT-29) of over 50 µM and an IC50 (SNU-398) of over 50 µM. For the same compound, the IC50 (CAPAN-1) was over 50 µM.

With `C[C@@H]1C[C@H]2[C@@H]3CCC4=CC(=O)C=C[C@]4(C)[C@@]3(F)[C@@H](O)C[C@]2(C)[C@@]1(O)C(=O)CO` [DEXAMETHASONE] the IC50 (RAW264.7) was 8.7 µM, the CC50 at 24 h [1] was over 50 µM and the selectivity ratio [2] was over 5.7.

Work on `C=C1C(=O)O[C@]2(C)CC[C@@H]1C[C@@H]1O[C@@]1(C)CC/C=C(\C)CC[C@@H]2O` [SINULARIOLIDE] yielded an IC50 (RAW264.7) of 4.7 µM, a CC50 at 24 h [1] of over 50 µM and a selectivity ratio [2] of over 10.6. It also gave an IC50 (A549) of over 50 µM, an IC50 (HT-29) of 33.6 µM and an IC50 (SNU-398) of 24.7 µM. The IC50 (CAPAN-1) was 26.1 µM.

For `C=C(C(=O)OCCCC)[C@@H]1CC[C@@](C)(O)[C@H](O)CC/C(C)=C/CC[C@]2(C)O[C@H]2C1`, the IC50 (RAW264.7) was over 50 µM, the CC50 at 24 h [1] was over 50 µM and the IC50 (A549) was over 50 µM. For the same compound, the IC50 (HT-29) was over 50 µM, the IC50 (SNU-398) was over 50 µM and the IC50 (CAPAN-1) was over 50 µM.

Compound `C=C(C(=O)OCCCC)[C@@H]1CC[C@@](C)(O)[C@@H]2CC[C@](C)(O2)[C@@H](OC(C)=O)CC[C@]2(C)O[C@H]2C1` has an IC50 (RAW264.7) of 20.7 µM, a CC50 at 24 h [1] of over 50 µM and a selectivity ratio [2] of over 2.4. It also gave an IC50 (A549) of over 50 µM, an IC50 (HT-29) of over 50 µM and an IC50 (SNU-398) of over 50 µM. It also gave an IC50 (CAPAN-1) of over 50 µM.

`C=C(C(=O)OC)[C@H]1CC[C@@]2(C)O[C@@H]2CC/C(C)=C/CC[C@@]2(C)O[C@H]2C1` gave an IC50 (RAW264.7) of 4.2 µM, a CC50 at 24 h [1] of over 50 µM and a selectivity ratio [2] of over 11.9. It also gave an IC50 (A549) of over 50 µM, an IC50 (HT-29) of over 50 µM and an IC50 (SNU-398) of over 50 µM. It also gave an IC50 (CAPAN-1) of over 50 µM.

`C=C(C(=O)OCCCC)[C@H]1CC[C@](C)(O)C(=O)CC/C(C)=C/CC[C@]2(C)O[C@@H]2C1` showed an IC50 (RAW264.7) of 38.9 µM, a CC50 at 24 h [1] of over 50 µM and a selectivity ratio [2] of over 1.3. For the same compound, the IC50 (A549) was over 50 µM, the IC50 (HT-29) was over 50 µM and the IC50 (SNU-398) was over 50 µM. For the same compound, the IC50 (CAPAN-1) was over 50 µM.

Compound `C=C(C)[C@@H]1CC[C@]2(C)O[C@H]2CC/C(C)=C/CC[C@]2(C)O[C@H]2C1` has an IC50 (RAW264.7) of over 50 µM, a CC50 at 24 h [1] of over 50 µM and an IC50 (A549) of over 50 µM. It also gave an IC50 (HT-29) of over 50 µM, an IC50 (SNU-398) of over 50 µM and an IC50 (CAPAN-1) of over 50 µM.

With `C=C1C(=O)O[C@]2(C)CC[C@@H]1C[C@@H]1O[C@@]1(C)CC/C=C(\C)CC[C@H]2OC(C)=O` the IC50 (RAW264.7) was 2.7 µM, the CC50 at 24 h [1] was over 50 µM and the selectivity ratio [2] was over 18.5. For the same compound, the IC50 (A549) was over 50 µM, the IC50 (HT-29) was 32.6 µM and the IC50 (SNU-398) was 24.9 µM. The IC50 (CAPAN-1) was 28.7 µM.
